The record followed here is patent publication US20250241848A1 (priority 2011, published 2025).

In the assay the test system is axillary sweat production. Conditions: human, in vivo.

Regarding `CCCCCCCCCCCCCC(=O)OC(C)C` [Isopropyl Myristate], the “greater effectiveness in reducing sweat production than placebo” value stood at 191%, the “greater reduction in sweat production than the subjects in the control group” value (“greater reduction” for short) was found to be 195%, the “reduction in sweat production (on average)” value (“reduction … (on average)” below) came out at 103 mg and the “subjects with at least a 30% reduction in sweat production compared to Baseline visit” value (“subjects with at least a 30% reduction” below) is 55%.

`CCCOC(=O)c1ccc(O)cc1` [Propylparaben]: the “greater effectiveness in reducing sweat production than placebo” value is recorded as 245%, the “greater reduction” value is 337%, the “reduction … (on average)” value stood at 177 mg and the “subjects with at least a 30% reduction” value amounted to 70%.

Take Polysorbate 80: the “greater effectiveness in reducing sweat production than placebo” value was 280%, the “greater reduction” value stood at 300%, the “reduction … (on average)” value was found to be 159 mg and the “subjects with at least a 30% reduction” value is recorded as 80%.
